The test system of experiment [1] is NCI-H526 cell line xenograft. The experiment can be described thus: SCLC subcutaneous mouse xenograft model, efficacy and pharmacodynamics. The conditions noted are these: 25 mg/kg QD. The class given is in vivo.
Experiment [2] concerns small cell lung cancer lines. The experiment can be described thus: 6 day proliferation (cell growth) assay, panel of 38 small cell lung cancer lines. The format is cell-based. The conditions noted are these: 6 day proliferation assay; for IC50: 144 h.

Like-named read-outs stand apart in the source and are kept apart here.

On to `CCNC(=O)C[C@@H]1N=C(c2ccc(Cl)cc2)c2cc(OC)ccc2-n2c(C)nnc21` [2-[(4S)-6-(4-chlorophenyl)-1-methyl-8-(methyloxy)-4H-[1,2,4]triazolo[4,3-a][1,4]benzodiazepin-4-yl]-N-ethylacetamide], for which the “reduction of tumour growth” value in experiment [1] (NCI-H526 subcutaneous mouse xenograft) came to 70%. For the same molecule, the “p21 protein expression and caspase activation in tumour” value in experiment [1] (NCI-H526 xenograft, antibody-based immunochemistry assay) is “induce p21 protein expression and caspase activation”. Besides, the IC50 is 1460 nM in experiment [2] (median of 38 small cell lung cancer lines, read-out: gIC50 (median over the panel)) and 109 to 29300 nM in experiment [2] (panel of 38 small cell lung cancer lines, read-out: gIC50 (range over the panel)). Also, the “number of lines showing gIC50<10000 nM” value in experiment [2] (of the 38 small cell lung cancer lines) was found to be 33.

The values above are taken from patent publication US20150238507A1, “BENZODIAZEPINES FOR TREATING SMALL CELL LUNG CANCER” (GlaxoSmithKline LLC, priority 2012, published 2015).
